Article PMC9889419 (Pharmacological Reports, 2022)
Like-named read-outs stand apart in the source and are kept apart here. Marks after values point to notes of the source that are not given here.

Legend:
mice [1] = assay: Rotarod test (neurotoxicity); type: in vivo; settings: for Rotarod: neurotoxic at: mice, ip; for Number of animals active or toxic over the number tested: Rotarod;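 for all read-outs here: in vivo neurotoxicity screen run within the NIH Epilepsy Therapy Screening Program (ETSP, formerly Anticonvulsant Screening Program)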
Method: (§1) The assays were carried out within the Epilepsy Therapy Screening Program (ETSP, previously known as the Anticonvulsant Screening Program, ASP), Epilepsy Branch, National Institute of Neurological and Communicative Disorders and Stroke, National Institutes of Health in Rockville, MD, USA [23].
The obtained compounds were screened for antiseizure activity and neurotoxicity in vivo within the Epilepsy Therapy Screening Program (ETSP, previously known as the Anticonvulsant Screening Program, ASP), Epilepsy Branch, National Institute of Neurological and Communicative Disorders and Stroke, National Institutes of Health in Rockville, MD, USA [23].

mice [2] = settings: for MES: active at: mice, ip; for Number of animals active or toxic over the number tested: MES
mice [3] = settings: 32 mA, ip; cited from earlier work
mice [4] = settings: ip, cited from earlier work
mice [5] = settings: ip; cited from earlier work
mice [6] = assay: Tail immersion test (local anesthetic activity); type: in vivo
Method: The tail immersion test in mice. […] The method was performed by subcutaneous (sc) injection of the tested substance dissolved in saline, at a concentration range 0.06–2%, in a constant volume of 0.2 mL about 1 cm from the root of the mouse tail. Fifteen minutes later, the 3-cm distal part of the tail was immersed into temperature-controlled water (50 ± 0.5 °C). The reaction time (latency until the tail is pulled away) was measured by the means of a chronometer. In this assay the cut-off was 20 s [29].

guinea pigs [7] = assay: Corneal anesthesia; type: in vivo; settings: 5 min
Method: A. Corneal anesthesia. […] The corneal reflex was examined by irritation of right eye conjunctiva (studied eye) and a left eye conjunctiva (control eye) by horsehair. The strength of local anesthetic activity was determined from the moment of solution instillation to the moment of reflex return. The presence or lack of corneal reflex were assessed. The eye conjunctiva irritation was done 6 times (every 5 s) with the interval of 5 min during the first 30 min [31].

mice [8] = assay: Formalin test (first screening); type: in vivo; settings: ip
Method: Formalin test. The first screening in doses 15 and 30 mg/kg was performed at the Jagiellonian University-Medical College. […] After 30 min, animals were injected with 20 μL of a 0.5% formalin solution into the plantar surface of the hind paw. The total time spent by animal licking or biting the injected paw was assessed for the following 40 min.

guinea pigs [9] = assay: Infiltration anesthesia (intradermal wheal test); type: in vivo
Method: A painful reaction to a prick of the skin at the centre of the wheal three times and every 5 s with 5 min intervals during the first 30 min of observation was tested. The experiment was continued to achieve a return of a reaction to the prick. The control wheal was done by an intradermal injection of 0.1 mL of 0.9% NaCl [25]. Local anesthesia was determined by calculating the ratio of the number of positive responses (no flinch) to the number of negative responses (flinch).

mice [10] = assay: Subcutaneous pentylenetetrazole seizure test (ScPTZ, SCMET); type: in vivo; settings: mice, ip, 0.5 h
Method: as §1

mice [11] = assay: Antiseizure activity and preliminary toxicity screening; type: in vivo; settings: ip
mice [12] = assay: 6 Hz test; type: in vivo; settings: for Number of animals active or toxic over the number tested: 6 Hz
Method: The 6 Hz model test was carried out according to the protocol originally described by Brown et al. [54] and more recently by Barton et al. [55] and Kamiński et al. [47] and is a model of pharmacoresistant epilepsy [56].

rats = settings: ip; cited from earlier work
guinea pigs [13] = settings: 0.5%, cited from earlier work
mice [14] = settings: cited from earlier work

Cc1cccc(Cl)c1OCCN[C@@H]1CCCC[C@H]1O (relative stereo) [Compound 8, R,S-trans-2-((2-(2-chloro-6-methylphenoxy)ethyl)amino)cyclohexan-1-ol]
Rotarod: neurotoxic at (mice [1]; 0.5 h): 100 mg/kg | MES: active at (mice [2]; 0.5 h): 30 mg/kg

CC(=O)[C@H]1CC[C@H]2[C@@H]3CC[C@H]4C[C@H](O)CC[C@]4(C)[C@H]3CC[C@]12C [Allopregnanolone]
6 Hz ED50 (mice [3]): 14.2 (10.3–19.4) mg/kg | 6 Hz TPE (mice [3]): 0.17 h | MES ED50 (mice [4]): > 100 mg/kg | MES TPE (mice [4]): 0.17 h | ScPTZ ED50 (mice [5]): 13.7 (10.1–18.7) mg/kg | ScPTZ TPE (mice [5]): 0.17 h

Cc1cccc(Cl)c1OCCNCC(C)O (centres unmarked) [Compound 1, R,S-1-((2-(2-chloro-6-methylphenoxy)ethyl)amino)propan-2-ol]
Rotarod: neurotoxic at (mice [1]; 0.5 h): 100 mg/kg | MES: active at (mice [2]; 0.5 h): 30 mg/kg

Cc1cccc(Cl)c1OCCNC(C)CO (centres unmarked) [Compound 2, R,S-2-((2-(2-chloro-6-methylphenoxy)ethyl)amino)propan-1-ol]
Rotarod: neurotoxic at (mice [1]; 0.5 h): MES: active at 100 Rotarod: neurotoxic at 100 mg/kg | MES: active at (mice [2]; 0.5 h): MES: active at 100 Rotarod: neurotoxic at 100 mg/kg

CCC(O)CNCCOc1c(C)cccc1Cl (centres unmarked) [Compound 3, R,S-1-((2-(2-chloro-6-methylphenoxy)ethyl)amino)butan-2-ol]
Rotarod: neurotoxic at (mice [1]; 0.5 h): 100 mg/kg | MES: active at (mice [2]; 0.5 h): 30 mg/kg

CC[C@@H](CO)NCCOc1c(C)cccc1Cl.Cl [Compound 6a, S-( +)-2-((2-(2-chloro-6-methylphenoxy)ethyl)amino)butan-1-ol hydrochloride]
Prolongation of the time reaction (mice [6]; 0.031%): 60.0% | Reaction time to painful stimulus (mice [6]; 0.031%): 5.6 ± 0.9 s | Prolongation of the time reaction (mice [6]; 0.094%): 82.9% | Reaction time to painful stimulus (mice [6]; 0.094%): 6.4 ± 0.8 s | Prolongation of the time reaction (mice [6]; 0.125%): 348.6% | Reaction time to painful stimulus (mice [6]; 0.125%): 15.7 ± 1.8 s | Prolongation of the time reaction (mice [6]; 0.5%): 457.1% | Reaction time to painful stimulus (mice [6]; 0.5%): 19.5 ± 0.5 s | Prolongation of the time reaction (mice [6]; 2.0%): 437.1% | Reaction time to painful stimulus (mice [6]; 2.0%): 18.8 ± 1.9 s | Prolongation of the time reaction (mice [6]; […]): 5.7% | Reaction time to painful stimulus (mice [6]; […]): 3.7 ± 0.6 s | Rotarod: neurotoxic at (mice [1]; 0.5 h): MES: active at 100 Rotarod: neurotoxic at 100 mg/kg | Inhibition of pain reaction (guinea pigs [7]; 0.5%): 75*** % | Inhibition of pain reaction (guinea pigs [7]; […]): 63.89*** % | % of effect (I phase) (mice [8]; 30.0 mg/kg): 33.4% | % of effect (II phase) (mice [8]; 30.0 mg/kg): 10.2% | Time of licking paw ± SEM (I phase) (mice [8]; 30.0 mg/kg): 59.7 ± 6.4 s | formalin test (I phase): active at (mice [8]): 30 mg/kg | Inhibition of pain reaction (guinea pigs [9]; 0.5%, 30 min): 93.75*** % | Inhibition of pain reaction (guinea pigs [9]; 0.5%, 60 min): 43.75* % | Inhibition of pain reaction (guinea pigs [9]; 0.5%, 120 min): 25% | Inhibition of pain reaction (guinea pigs [9]; […], 5 min): 94.44*** % | Inhibition of pain reaction (guinea pigs [9]; […], 60 min): 38.89* % | MES: active at (mice [2]; 0.5 h): MES: active at 100 Rotarod: neurotoxic at 100 mg/kg

Cc1cccc(Cl)c1OCCNC(C)(CO)CO [Compound 7, 2-((2-(2-chloro-6-methylphenoxy)ethyl)amino)-2-methylpropane-1,3-diol]
melting point: 83 to 85 °C | Rotarod: neurotoxic at (mice [1]; 0.5 h): MES: active at 100 Rotarod: neurotoxic at 100 mg/kg | MES: active at (mice [2]; 0.5 h): MES: active at 100 Rotarod: neurotoxic at 100 mg/kg

Cc1cccc(Cl)c1OCCNCC(O)c1ccccc1 (centres unmarked) [Compound 9, R,S-2-((2-(2-chloro-6-methylphenoxy)ethyl)amino)-1-phenylethan-1-oll]
Rotarod: neurotoxic at (mice [1]; 0.5 h): 100 mg/kg | MES: active at (mice [2]; 0.5 h): 30 mg/kg

Cc1cccc(Cl)c1OCC(=O)NCC(C)O (centres unmarked) [Compound 10, R,S-2-(2-chloro-6-methylphenoxy)-N-(2-hydroxypropyl)acetamide]
Rotarod: neurotoxic at (mice [1]; 0.5 h): 300 mg/kg | ScPTZ: active at (mice [10]): 300 mg/kg

Cc1cccc(Cl)c1OCC(=O)NC(C)CO (centres unmarked) [Compound 11, R,S-2-(2-chloro-6-methylphenoxy)-N-(1-hydroxypropan-2-yl)acetamide]
Rotarod: neurotoxic at (mice [1]; 0.5 h): 100 mg/kg | MES: active at (mice [2]; 0.5 h): 300 mg/kg

CCC(CO)NC(=O)COc1c(C)cccc1Cl (centres unmarked) [Compound 12, R,S-2-(2-chloro-6-methylphenoxy)-N-(1-hydroxybutan-2-yl)acetamide]
Rotarod: neurotoxic at (mice [1]; 0.5 h): 300 mg/kg | ScPTZ: active at (mice [10]): 100 mg/kg | MES: active at (mice [2]; 0.5 h): 300 mg/kg

Cc1cccc(Cl)c1OCC(=O)NC(C)C(=O)O (stereo not drawn) [Compound 13, R,S-(2-(2-chloro-6-methylphenoxy)acetyl)alanine]
Antiseizure activity and preliminary toxicity screening: result (mice [11]): No activity

Cc1cccc(Cl)c1OCC(=O)N[C@H](C)C(=O)O [Compound 14, R-(+)-(2-(2-chloro-6-methylphenoxy)acetyl)alanine]
Antiseizure activity and preliminary toxicity screening: result (mice [11]): No activity

Cc1cccc(Cl)c1OCC(=O)N[C@@H](C)C(=O)O [Compound 15, S-(-)-(2-(2-chloro-6-methylphenoxy)acetyl)alanine]
Antiseizure activity and preliminary toxicity screening: result (mice [11]): No activity

CCC(NC(=O)COc1c(C)cccc1Cl)C(=O)O (centres unmarked) [Compound 16, R,S-2-(2-(2-chloro-6-methylphenoxy)acetamido)butanoic acid]
Antiseizure activity and preliminary toxicity screening: result (mice [11]): No activity

Cc1cccc(Cl)c1OCC(=O)N[C@H]1CC[C@H](O)CC1 [Compound 18, Trans-2-(2-chloro-6-methylphenoxy)-N-(4-hydroxycyclohexyl)acetamide]
Number of animals active or toxic over the number tested (mice [1]; 30 mg/kg, 0.5 h): 0/8 | Number of animals active or toxic over the number tested (mice [1]; 30 mg/kg, 2.0 h): 0/8 | Number of animals active or toxic over the number tested (mice [1]; 100 mg/kg, 0.5 h): 2/8 | Number of animals active or toxic over the number tested (mice [1]; 100 mg/kg, 2.0 h): 0/8 | Number of animals active or toxic over the number tested (mice [1]; 300 mg/kg, 0.5 h): 8/8 (sedated) | Number of animals active or toxic over the number tested (mice [1]; 300 mg/kg, 2.0 h): 0/8 (unable to grasp rotarod) | Rotarod: neurotoxic at (mice [1]; 0.5 h): 100 mg/kg | Number of animals active or toxic over the number tested (mice [12]; 30 mg/kg, 0.5 h): 0/4 | Number of animals active or toxic over the number tested (mice [12]; 30 mg/kg, 2.0 h): 0/4 | Number of animals active or toxic over the number tested (mice [12]; 100 mg/kg, 0.5 h): 4/4 | Number of animals active or toxic over the number tested (mice [12]; 100 mg/kg, 2.0 h): 0/4 | Number of animals active or toxic over the number tested (mice [12]; 300 mg/kg, 0.5 h): 4/4 | Number of animals active or toxic over the number tested (mice [12]; 300 mg/kg, 2.0 h): 4/4 | 8 Hz: active at (mice [12]; mice, ip, 0.5 h): 100 mg/kg | Number of animals active or toxic over the number tested (mice [2]; 30 mg/kg, 0.5 h): 3/4 | Number of animals active or toxic over the number tested (mice [2]; 30 mg/kg, 2.0 h): 0/4 | Number of animals active or toxic over the number tested (mice [2]; 100 mg/kg, 0.5 h): 4/4 | Number of animals active or toxic over the number tested (mice [2]; 100 mg/kg, 2.0 h): 0/4 | Number of animals active or toxic over the number tested (mice [2]; 300 mg/kg, 0.5 h): 4/4 | Number of animals active or toxic over the number tested (mice [2]; 300 mg/kg, 2.0 h): 4/4 | MES: active at (mice [2]; 0.5 h): 30 mg/kg

NCC1(CC(=O)O)CCCCC1 [Gabapentin]
SNL ED50 (rats): 32 mg/kg

CCN(CC)CC(=O)Nc1c(C)cccc1C [Lidocaine]
Inhibition of pain reaction (guinea pigs [13]; 240 min): 22.2% | Inhibition of pain reaction (guinea pigs [13]; 24 h): 0%

Cc1cccc(C)c1NC(=O)C1CCCCN1C (centres unmarked) [Mepivacaine]
Prolongation of the time reaction (mice [14]; 1.0%): 94.63% | Reaction time to painful stimulus (mice [14]; 1.0%): 14.13 ± 2.67 s | Prolongation of the time reaction (mice [14]; 2.0%): 116.67% | Reaction time to painful stimulus (mice [14]; 2.0%): 15.73 ± 2.09 s

NC(=O)N1c2ccccc2CC(=O)c2ccccc21 [Oxcarbazepine]
SNL MED (rats): 10 mg/kg

O=C1NC(=O)C(c2ccccc2)(c2ccccc2)N1 [Phenytoin]
Prolongation of the time reaction (mice [14]; 1.0%): 18% | Reaction time to painful stimulus (mice [14]; 1.0%): 5.72 ± 0.63 s | Prolongation of the time reaction (mice [14]; 2.0%): 84% | Reaction time to painful stimulus (mice [14]; 2.0%): 8.90 ± 0.80 s

CC(C)NCC(O)COc1cccc2ccccc12 (centres unmarked) [Propranolol, propranolol]
MES ED50 (mice [4]; Table 3): MES: ED50 = 15–20 mg/kg
